According to patent US10508120B2, “TYK2 inhibitors and uses thereof” (Nimbus Lakshmi, Inc., priority 2017, dated 2019):
Read-outs that look alike come from different tables or passages of the source.

Legend:
[1] = biological target: Tyk2/JAK2 (heterodimeric complex) (Homo sapiens (Human), UniProt P29597); experiment: IL-12 Induced pSTAT4 in Human PBMC; assay type: cell-based; details: 1.7 ng/mL IL-12
Source text: The IL-12 Induced pSTAT4 assay evaluates the inhibition of IL-12 induced STAT4 phophorylation mediated by Tyk2/JAK2 (heterodimeric complex).

[2] = biological target: JAK2/JAK2 homdimeric complex (Homo sapiens (Human), UniProt O60674); experiment: GM-CSF Induced pSTAT5 in Human PBMC; assay type: cell-based; details: GM-CSF 5 ng/mL for 20 minutes, pSTAT5 by MSD, read-out: PBMC_GMCSF_pSTAT5 IC50
JAK2/JAK2 homdimeric complex, sequence (O60674 whole entry, the tested form may be a part): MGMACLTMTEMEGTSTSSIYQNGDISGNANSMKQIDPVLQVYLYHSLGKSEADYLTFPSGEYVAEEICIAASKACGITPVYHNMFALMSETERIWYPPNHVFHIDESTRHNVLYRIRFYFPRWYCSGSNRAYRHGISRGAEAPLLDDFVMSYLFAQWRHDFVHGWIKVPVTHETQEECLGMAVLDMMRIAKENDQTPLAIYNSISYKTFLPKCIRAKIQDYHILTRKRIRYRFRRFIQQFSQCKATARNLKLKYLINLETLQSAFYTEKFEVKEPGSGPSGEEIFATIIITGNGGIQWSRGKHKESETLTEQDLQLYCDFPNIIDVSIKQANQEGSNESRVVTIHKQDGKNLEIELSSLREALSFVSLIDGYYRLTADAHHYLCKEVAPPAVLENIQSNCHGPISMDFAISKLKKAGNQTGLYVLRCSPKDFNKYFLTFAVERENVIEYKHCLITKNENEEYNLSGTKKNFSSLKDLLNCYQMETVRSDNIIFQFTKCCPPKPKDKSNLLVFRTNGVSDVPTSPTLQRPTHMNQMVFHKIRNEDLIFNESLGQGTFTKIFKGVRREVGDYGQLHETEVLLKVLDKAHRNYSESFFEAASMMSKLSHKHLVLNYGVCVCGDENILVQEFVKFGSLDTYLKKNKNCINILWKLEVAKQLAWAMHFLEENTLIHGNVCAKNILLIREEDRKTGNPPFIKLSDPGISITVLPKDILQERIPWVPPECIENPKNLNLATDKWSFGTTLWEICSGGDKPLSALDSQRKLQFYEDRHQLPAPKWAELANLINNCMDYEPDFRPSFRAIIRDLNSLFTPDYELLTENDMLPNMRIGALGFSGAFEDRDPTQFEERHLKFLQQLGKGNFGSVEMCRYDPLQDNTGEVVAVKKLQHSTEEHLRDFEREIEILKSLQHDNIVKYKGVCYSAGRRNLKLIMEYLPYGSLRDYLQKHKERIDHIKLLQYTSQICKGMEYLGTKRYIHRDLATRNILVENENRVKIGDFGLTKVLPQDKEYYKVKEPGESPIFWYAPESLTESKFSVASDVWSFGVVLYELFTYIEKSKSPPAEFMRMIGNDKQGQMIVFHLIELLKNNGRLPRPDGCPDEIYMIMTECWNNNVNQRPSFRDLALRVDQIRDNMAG
JAK2/JAK2 homdimeric complex, sequence (P32927 17-897 partner): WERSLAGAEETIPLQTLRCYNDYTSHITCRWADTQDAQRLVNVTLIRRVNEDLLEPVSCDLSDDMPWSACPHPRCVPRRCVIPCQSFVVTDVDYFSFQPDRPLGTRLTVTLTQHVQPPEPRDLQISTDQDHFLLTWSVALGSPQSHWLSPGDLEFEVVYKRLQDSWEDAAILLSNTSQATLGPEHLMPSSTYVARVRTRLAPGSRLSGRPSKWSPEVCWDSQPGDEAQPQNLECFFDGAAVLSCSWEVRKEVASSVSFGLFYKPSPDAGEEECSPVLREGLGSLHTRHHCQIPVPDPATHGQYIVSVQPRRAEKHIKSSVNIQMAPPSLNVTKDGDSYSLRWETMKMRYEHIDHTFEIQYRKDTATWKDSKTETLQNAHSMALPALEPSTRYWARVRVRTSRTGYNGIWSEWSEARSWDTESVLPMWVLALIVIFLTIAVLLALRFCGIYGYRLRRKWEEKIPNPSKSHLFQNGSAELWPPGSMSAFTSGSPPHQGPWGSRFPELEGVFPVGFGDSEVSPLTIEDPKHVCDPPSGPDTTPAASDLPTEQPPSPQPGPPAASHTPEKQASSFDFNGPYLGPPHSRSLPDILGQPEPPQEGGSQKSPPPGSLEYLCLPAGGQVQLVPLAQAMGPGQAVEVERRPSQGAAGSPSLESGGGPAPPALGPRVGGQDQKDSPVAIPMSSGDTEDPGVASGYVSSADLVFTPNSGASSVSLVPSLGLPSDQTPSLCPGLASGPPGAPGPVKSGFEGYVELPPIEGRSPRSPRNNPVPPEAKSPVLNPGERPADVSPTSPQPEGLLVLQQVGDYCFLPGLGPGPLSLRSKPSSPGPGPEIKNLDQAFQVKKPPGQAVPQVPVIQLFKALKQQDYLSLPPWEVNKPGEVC

[3] = biological target: human TYK2 (JH2domain-pseudokinase) (Homo sapiens (Human), UniProt P29597); experiment: TYK2 JH2 Domain Binding Assay (KINOMEscan)
human TYK2 (JH2domain-pseudokinase), sequence (P29597 556-888): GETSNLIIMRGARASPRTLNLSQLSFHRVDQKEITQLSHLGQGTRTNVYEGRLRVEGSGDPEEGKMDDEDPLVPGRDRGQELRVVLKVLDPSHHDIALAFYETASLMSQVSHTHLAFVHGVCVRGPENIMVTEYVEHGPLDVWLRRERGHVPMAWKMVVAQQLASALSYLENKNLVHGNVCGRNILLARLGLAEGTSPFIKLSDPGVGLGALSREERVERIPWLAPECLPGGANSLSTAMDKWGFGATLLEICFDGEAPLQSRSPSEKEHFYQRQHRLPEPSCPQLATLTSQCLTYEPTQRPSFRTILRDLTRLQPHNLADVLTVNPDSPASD
Method in brief: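 Competition binding of an NFkB-DBD fusion of human TYK2 JH2 (G556–D888), expressed in HEK293 and used as crude extract at <0.1 nM, against immobilized ligand beads; 1 h at room temperature in PBS/Tween/DTT/BSA buffer, 0.9% DMSO.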

Tyk2 kinase domain (DH1) = Tyk2 kinase domain (DH1) (Homo sapiens (Human), UniProt P29597); experiment: Tyk2 Radioactive Kinase Assay; assay type: biochemical; details: read-out: Tyk2 JH1% Inhibition @ 10 μM
Tyk2 kinase domain (DH1), sequence (P29597 897-1176): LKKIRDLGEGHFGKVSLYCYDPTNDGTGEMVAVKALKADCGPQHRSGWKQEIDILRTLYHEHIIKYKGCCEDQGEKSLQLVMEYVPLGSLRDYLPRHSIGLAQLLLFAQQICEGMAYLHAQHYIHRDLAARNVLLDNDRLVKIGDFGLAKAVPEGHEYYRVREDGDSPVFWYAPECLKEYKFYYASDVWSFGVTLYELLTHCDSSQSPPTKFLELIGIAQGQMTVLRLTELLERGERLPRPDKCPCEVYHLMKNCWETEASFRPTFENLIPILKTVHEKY
Method in brief: (§1)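 Each kinase domain is incubated with test compound at 10 μM. Activity is then measured radiometrically and expressed as percent inhibition relative to uninhibited enzyme.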

JAK2 kinase domain (JH1) = JAK2 kinase domain (JH1) (Homo sapiens (Human), UniProt O60674); experiment: JAK2 Radioactive Kinase Assay; assay type: biochemical; details: read-out: JAK2 JH1% Inhibition @ 10 μM
JAK2 kinase domain (JH1), sequence (O60674 849-1124): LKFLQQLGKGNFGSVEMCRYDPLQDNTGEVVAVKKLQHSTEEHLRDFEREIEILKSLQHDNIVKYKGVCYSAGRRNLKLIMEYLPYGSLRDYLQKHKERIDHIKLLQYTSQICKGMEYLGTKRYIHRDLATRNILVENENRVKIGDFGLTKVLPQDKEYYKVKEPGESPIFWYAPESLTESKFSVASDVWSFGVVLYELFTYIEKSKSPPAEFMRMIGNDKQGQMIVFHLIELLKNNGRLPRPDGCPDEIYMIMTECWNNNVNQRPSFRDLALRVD
Method in brief: as §1

Tyk2/JAK2 (heterodimeric complex), sequence (P29597 whole entry, other chains not shown): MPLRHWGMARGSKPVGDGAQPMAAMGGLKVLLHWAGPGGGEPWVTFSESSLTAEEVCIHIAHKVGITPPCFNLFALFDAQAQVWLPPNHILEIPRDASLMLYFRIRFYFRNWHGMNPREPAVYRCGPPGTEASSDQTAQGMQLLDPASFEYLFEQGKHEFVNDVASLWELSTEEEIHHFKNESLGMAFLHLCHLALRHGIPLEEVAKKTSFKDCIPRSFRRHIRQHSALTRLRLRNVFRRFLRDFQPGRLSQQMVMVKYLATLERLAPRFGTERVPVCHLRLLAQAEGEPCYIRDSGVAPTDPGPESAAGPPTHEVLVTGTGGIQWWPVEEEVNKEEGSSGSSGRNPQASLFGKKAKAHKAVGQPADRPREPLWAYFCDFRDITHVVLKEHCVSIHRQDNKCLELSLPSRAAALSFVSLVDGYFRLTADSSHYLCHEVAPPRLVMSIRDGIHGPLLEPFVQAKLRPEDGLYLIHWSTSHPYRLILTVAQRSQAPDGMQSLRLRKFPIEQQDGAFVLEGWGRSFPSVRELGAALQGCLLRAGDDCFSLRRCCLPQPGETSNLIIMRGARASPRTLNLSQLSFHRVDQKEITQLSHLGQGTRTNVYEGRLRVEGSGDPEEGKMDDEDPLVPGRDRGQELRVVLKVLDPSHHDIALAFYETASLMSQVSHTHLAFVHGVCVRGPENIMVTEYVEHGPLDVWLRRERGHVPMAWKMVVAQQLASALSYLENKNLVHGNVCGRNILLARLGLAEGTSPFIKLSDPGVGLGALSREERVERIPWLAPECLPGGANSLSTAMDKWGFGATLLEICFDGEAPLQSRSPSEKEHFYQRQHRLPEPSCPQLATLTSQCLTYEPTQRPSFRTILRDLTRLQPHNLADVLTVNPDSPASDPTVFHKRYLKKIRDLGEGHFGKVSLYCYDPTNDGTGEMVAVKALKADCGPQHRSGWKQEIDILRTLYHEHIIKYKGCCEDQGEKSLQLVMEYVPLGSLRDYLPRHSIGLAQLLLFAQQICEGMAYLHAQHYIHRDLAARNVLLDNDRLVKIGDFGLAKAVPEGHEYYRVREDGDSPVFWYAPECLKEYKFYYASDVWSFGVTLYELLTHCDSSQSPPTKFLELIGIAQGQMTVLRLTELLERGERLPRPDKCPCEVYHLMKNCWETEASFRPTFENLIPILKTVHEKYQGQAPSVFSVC

| SMILES | IC50 [1] | IC50 [2] | Kd [3] | inhibition at 10 µM (Tyk2 kinase domain (DH1); compound at 10 μM, ATP 10 μM) | inhibition at 10 µM (JAK2 kinase domain (JH1); compound at 10 μM, ATP 10 μM) | inhibition at 10 µM (Tyk2 kinase domain (DH1); 10 μM compound, 10 μM ATP) | inhibition at 10 µM (JAK2 kinase domain (JH1); 10 μM compound, 10 μM ATP) |
| --- | --- | --- | --- | --- | --- | --- | --- |
| CNc1cc(Nc2cccn([C@H]3CC[C@@H](OC)CC3)c2=O)nc2c(C(=O)N[C@H]3C[C@H]3F)cnn12 [I-357] | < 100 nM | > 2500 nM | < 0.2 nM | < 50% | < 50% | – | – |
| CNc1cc(Nc2cccn(-c3ccn(C)n3)c2=O)nc2c(C(=O)NC3CC3)cnn12 [I-294] | < 100 nM | > 12500 nM | 0.2 to 1 nM | < 50% | < 50% | – | – |
| CNc1cc(Nc2cccnc2OC(C)C)nc2c(C(=O)NC3CCC3)cnn12 [I-145] | 100 to 500 nM | > 50000 nM | < 0.2 nM | < 50% | < 50% | – | – |
| CNc1cc(Nc2cc(F)cnc2OC2CC2)nc2c(C(=O)NC3CC3)cnn12 [I-274] | < 100 nM | > 12500 nM | < 0.2 nM | < 50% | < 50% | – | – |
| CNc1cc(Nc2cccn(-c3ncco3)c2=O)nc2c(C(=O)NC3CC3)cnn12 [I-715] | < 100 nM | > 2500 nM | < 0.2 nM | < 50% | < 50% | – | – |
| CCONC(=O)c1cnn2c(NC)cc(Nc3cccnc3OC)nc12 [I-409, N-ethoxy-5-((2-methoxypyridin-3-yl)amino)-7-(methylamino)pyrazolo[1,5-a]pyrimidine-3-carboxamide] | < 100 nM | > 12500 nM | < 0.2 nM | < 50% | < 50% | – | – |
| CNc1cc(Nc2cccn([C@H]3CC[C@H](OC)CC3)c2=O)nc2c(C(=O)N[C@H]3CC[C@@H]3O)cnn12 [I-540] | < 100 nM | > 12500 nM | < 0.2 nM | < 50% | < 50% | – | – |
| CCn1cc(Cl)cc(Nc2cc(NC)n3ncc(C(=O)NC4CC4)c3n2)c1=O [I-133, 5-((5-chloro-1-ethyl-2-oo-1,2-dihydropyridin-3-yl)amino)-N-cyclopropyl-7-(methylamino)pyrazolo[1,5-a]pyrimidine-3-carboxamide] | < 100 nM | > 12500 nM | < 0.2 nM | < 50% | < 50% | – | – |
| CCn1cc(Cl)cc(Nc2cc(NC)n3ncc(C(N)=O)c3n2)c1=O [I-35] | < 100 nM | > 300 nM | < 0.2 nM | < 50% | < 50% | – | – |
| CNc1cc(Nc2cccc([C@H]3CCCOC3)n2)nc2c(C(=O)N[C@H]3C[C@H]3F)cnn12 [I-563] | < 100 nM | > 50000 nM | < 0.2 nM | < 50% | < 50% | – | – |
| CNc1cc(Nc2cccn(-c3cc(C)n(C)n3)c2=O)nc2c(C(=O)NC3CC3)cnn12 [I-138] | < 100 nM | > 50000 nM | < 0.2 nM | < 50% | < 50% | – | – |
| CNc1cc(Nc2cccn3ccnc23)nc2c(C(=O)NC3CC3)cnn12 [I-891] | < 100 nM | > 50000 nM | < 0.2 nM | – | – | < 50% | < 50% |
| CNc1cc(-c2cn(CCN3CCOCC3)c3ncccc23)nc2c(C(=O)N[C@H]3CC[C@@H]3OC)cnn12 [I-886] | < 100 nM | > 300 nM | < 0.2 nM | – | – | < 50% | < 50% |
| CNc1cc(Nc2cccnc2OC)nc2c(C(=O)N[C@@H]3CC[C@H]3O)cnn12 [I-396] | < 100 nM | > 50000 nM | < 0.2 nM | < 50% | < 50% | – | – |
| CNc1cc(Nc2cccnc2OC)nc2c(C(=O)NO)cnn12 [I-710, N-hydroxy-5-((2-methoxypyridin-3-yl)amino)-7-(methylamino)pyrazolo[1,5-a]pyrimidine-3-carboxamide] | 100 to 500 nM | > 50000 nM | < 0.2 nM | < 50% | < 50% | – | – |

The next lines start with the values.

| IC50 [1] | IC50 [2] | Kd [3] | inhibition at 10 µM (Tyk2 kinase domain (DH1); compound at 10 μM, ATP 10 μM) | inhibition at 10 µM (JAK2 kinase domain (JH1); compound at 10 μM, ATP 10 μM) | inhibition at 10 µM (Tyk2 kinase domain (DH1); 10 μM compound, 10 μM ATP) | inhibition at 10 µM (JAK2 kinase domain (JH1); 10 μM compound, 10 μM ATP) | SMILES |
| --- | --- | --- | --- | --- | --- | --- | --- |
| < 100 nM | > 50000 nM | < 0.2 nM | < 50% | < 50% | – | – | [2H]C([2H])([2H])Oc1ncccc1Nc1cc(NC)n2ncc(C(=O)N[C@H]3CC[C@@H]3O)c2n1 [I-373] |
| < 100 nM | > 12500 nM | < 0.2 nM | < 50% | < 50% | – | – | CNc1cc(Nc2cccn(C3CCN(CC(F)F)CC3)c2=O)nc2c(C(=O)NC3CCC3)cnn12 [I-192] |
| < 100 nM | > 50000 nM | < 0.2 nM | – | – | < 50% | < 50% | CNc1cc(Nc2cc(Cl)cn([C@H]3CCCN(C)C3)c2=O)nc2c(C(=O)N[C@@H]3C[C@@H]3F)cnn12 [I-854] |
| < 100 nM | > 50000 nM | < 0.2 nM | < 50% | < 50% | – | – | CNc1cc(-c2cn(C(C)C)c3ncccc23)nc2c(C(=O)NC3CCC3)cnn12 [I-224] |
| < 100 nM | > 50000 nM | < 0.2 nM | – | – | < 50% | < 50% | CNc1cc(Nc2cc(Cl)cn(C3CCOCC3)c2=O)nc2c(C(=O)N[C@@H]3CC[C@H]3O)cnn12 [I-825] |
| < 100 nM | > 12500 nM | 0.2 to 1 nM | < 50% | < 50% | – | – | CNc1cc(Nc2cccn(-c3cc(C)nn3C)c2=O)nc2c(C(=O)NC3CCC3)cnn12 [I-342] |
| < 100 nM | > 12500 nM | < 0.2 nM | < 50% | < 50% | – | – | CNc1cc(Nc2cc(F)cn(-c3ccn(C)n3)c2=O)nc2c(C(=O)NC3CC3)cnn12 [I-378] |
| < 100 nM | > 50000 nM | < 0.2 nM | < 50% | < 50% | – | – | CNc1cc(Nc2cc(Cl)cn(-c3ccc(C4CC4)nn3)c2=O)nc2c(C(=O)N[C@H]3C[C@H]3F)cnn12 [I-334] |
| < 100 nM | > 12500 nM | < 0.2 nM | < 50% | < 50% | – | – | CNc1cc(Nc2cccn(-c3cnc(C(=O)N(C)C)cn3)c2=O)nc2c(C(=O)NC3CC3)cnn12 [I-127, N-cyclopropyl-5-((1-(5-(dimethylcarbamoyl)pyrazin-2-yl)-2-oxo-1,2-dihydropyridin-3-yl)amino)-7-(methylamino)pyrazolo[1,5-a]pyrimidine-3-carboxamide] |
| < 100 nM | > 2500 nM | < 0.2 nM | < 50% | < 50% | – | – | CCOc1ccc(-n2cccc(Nc3cc(NC)n4ncc(C(=O)N[C@H]5C[C@H]5F)c4n3)c2=O)nn1 [I-117] |
| < 100 nM | > 50000 nM | < 0.2 nM | < 50% | < 50% | – | – | CNc1cc(Nc2cccn(-c3cnn(C)c3)c2=O)nc2c(C(=O)N[C@H]3C[C@H]3F)cnn12 [I-296] |
| < 100 nM | > 50000 nM | < 0.2 nM | < 50% | < 50% | – | – | [2H]C([2H])([2H])Oc1ncccc1Nc1cc(NC)n2ncc(C(=O)NC3CCC3)c2n1 [I-176] |
